In brackets after ≈: the same amount, converted by molar mass.
How the values were obtained:
Staphylococcus aureus [1] = assay: Antimicrobial activity against oxacillin-resistant Staphylococcus aureus clinical isolates assessed as percent susceptible isolates by broth microdilution method; assay type: functional
[2] = test system: Staphylococcus haemolyticus; assay: Antimicrobial activity against Staphylococcus haemolyticus clinical isolates assessed as resistant isolates by broth microdilution method; assay type: functional
Streptococcus pneumoniae [3] = assay: Antimicrobial activity against penicillin-resistant Streptococcus pneumoniae clinical isolates assessed as resistant isolates by broth microdilution method; assay type: functional
[4] = test system: Staphylococcus epidermidis; assay: Antimicrobial activity against oxacillin-susceptible Staphylococcus epidermidis clinical isolates assessed as resistant isolates by broth microdilution method; assay type: functional
[5] = Antimicrobial activity against erythromycin-nonsusceptible Streptococcus Group G clinical isolates assessed as percent susceptible isolates by broth microdilution method; assay type: functional, Streptococcus sp. 'group G'
Streptococcus pyogenes [6] = assay: Antimicrobial activity against Streptococcus pyogenes clinical isolates assessed as resistant isolates by broth microdilution method; assay type: functional
Streptococcus agalactiae [7] = assay: Antimicrobial activity against erythromycin-nonsusceptible Streptococcus agalactiae clinical isolates assessed as percent susceptible isolates by broth microdilution method; assay type: functional
Streptococcus pyogenes [8] = assay: Antimicrobial activity against erythromycin-nonsusceptible Streptococcus pyogenes clinical isolates by broth microdilution method; assay type: functional
[9] = Antimicrobial activity against erythromycin-nonsusceptible Streptococcus Group C clinical isolates assessed as percent susceptible isolates by broth microdilution method; assay type: functional, Streptococcus sp. 'group C'
[10] = test system: Staphylococcus epidermidis; assay: Antimicrobial activity against oxacillin-susceptible Staphylococcus epidermidis clinical isolates by broth microdilution method; assay type: functional
Streptococcus agalactiae [11] = assay: Antimicrobial activity against Streptococcus agalactiae clinical isolates assessed as resistant isolates by broth microdilution method; assay type: functional
Streptococcus agalactiae [12] = assay: Antimicrobial activity against erythromycin-nonsusceptible Streptococcus agalactiae clinical isolates assessed as resistant isolates by broth microdilution method; assay type: functional
Streptococcus pyogenes [13] = assay: Antimicrobial activity against Streptococcus pyogenes clinical isolates assessed as percent susceptible isolates by broth microdilution method; assay type: functional
[14] = test system: Staphylococcus epidermidis; assay: Antimicrobial activity against Staphylococcus epidermidis clinical isolates assessed as percent susceptible isolates by broth microdilution method; assay type: functional
[15] = Antimicrobial activity against erythromycin-nonsusceptible Streptococcus Group G clinical isolates by broth microdilution method; assay type: functional; details: Streptococcus sp. 'group G'
[16] = test system: Staphylococcus haemolyticus; assay: Antimicrobial activity against Staphylococcus haemolyticus clinical isolates by broth microdilution method; assay type: functional
[17] = Antimicrobial activity against erythromycin-nonsusceptible Streptococcus Group C clinical isolates by broth microdilution method; assay type: functional; details: Streptococcus sp. 'group C'
Streptococcus [18] = assay: Antimicrobial activity against erythromycin-nonsusceptible Streptococcus Group F clinical isolates by broth microdilution method; assay type: functional
Streptococcus pneumoniae [19] = assay: Antimicrobial activity against Streptococcus pneumoniae clinical isolates assessed as percent susceptible isolates by broth microdilution method; assay type: functional
Streptococcus pyogenes [20] = assay: Antimicrobial activity against erythromycin-nonsusceptible Streptococcus pyogenes clinical isolates assessed as resistant isolates by broth microdilution method; assay type: functional
Streptococcus pneumoniae [21] = assay: Antimicrobial activity against Streptococcus pneumoniae clinical isolates assessed as resistant isolates by broth microdilution method; assay type: functional
Streptococcus pneumoniae [22] = assay: Antimicrobial activity against Streptococcus pneumoniae clinical isolates by broth microdilution method; assay type: functional
Streptococcus pneumoniae [23] = assay: Antimicrobial activity against penicillin-resistant Streptococcus pneumoniae clinical isolates by broth microdilution method; assay type: functional
[24] = test system: Staphylococcus epidermidis; assay: Antimicrobial activity against oxacillin-susceptible Staphylococcus epidermidis clinical isolates assessed as percent susceptible isolates by broth microdilution method; assay type: functional
[25] = Antimicrobial activity against erythromycin-susceptible Streptococcus Group C clinical isolates by broth microdilution method; assay type: functional; details: Streptococcus sp. 'group C'
[26] = test system: Staphylococcus haemolyticus; assay: Antimicrobial activity against oxacillin-susceptible Staphylococcus haemolyticus clinical isolates assessed as resistant isolates by broth microdilution method; assay type: functional
[27] = test system: Staphylococcus haemolyticus; assay: Antimicrobial activity against oxacillin-susceptible Staphylococcus haemolyticus clinical isolates assessed as percent susceptible isolates by broth microdilution method; assay type: functional
Streptococcus agalactiae [28] = assay: Antimicrobial activity against Streptococcus agalactiae clinical isolates assessed as percent susceptible isolates by broth microdilution method; assay type: functional
Streptococcus pneumoniae [29] = assay: Antimicrobial activity against penicillin-susceptible Streptococcus pneumoniae clinical isolates by broth microdilution method; assay type: functional
Streptococcus [30] = assay: Antimicrobial activity against Streptococcus Group F clinical isolates by broth microdilution method; assay type: functional
Staphylococcus aureus [31] = assay: Antimicrobial activity against Staphylococcus aureus clinical isolates assessed as resistant isolates by broth microdilution method; assay type: functional
[32] = test system: Staphylococcus haemolyticus; assay: Antimicrobial activity against oxacillin-susceptible Staphylococcus haemolyticus clinical isolates by broth microdilution method; assay type: functional
Staphylococcus aureus [33] = assay: Antimicrobial activity against Staphylococcus aureus clinical isolates by broth microdilution method; assay type: functional
Staphylococcus aureus [34] = assay: Antimicrobial activity against oxacillin-susceptible Staphylococcus aureus clinical isolates assessed as percent susceptible isolates by broth microdilution method; assay type: functional
[35] = Antimicrobial activity against erythromycin-susceptible Streptococcus Group G clinical isolates by broth microdilution method; assay type: functional; details: Streptococcus sp. 'group G'
[36] = test system: Staphylococcus haemolyticus; assay: Antimicrobial activity against Staphylococcus haemolyticus clinical isolates assessed as percent susceptible isolates by broth microdilution method; assay type: functional
Streptococcus pneumoniae [37] = assay: Antimicrobial activity against penicillin-susceptible Streptococcus pneumoniae clinical isolates assessed as percent susceptible isolates by broth microdilution method; assay type: functional
Staphylococcus aureus [38] = assay: Antimicrobial activity against oxacillin-susceptible Staphylococcus aureus clinical isolates by broth microdilution method; assay type: functional
Streptococcus pyogenes [39] = assay: Antimicrobial activity against Streptococcus pyogenes clinical isolates by broth microdilution method; assay type: functional
Staphylococcus aureus [40] = assay: Antimicrobial activity against oxacillin-resistant Staphylococcus aureus clinical isolates assessed as resistant isolates by broth microdilution method; assay type: functional
Streptococcus agalactiae [41] = assay: Antimicrobial activity against erythromycin-nonsusceptible Streptococcus agalactiae clinical isolates by broth microdilution method; assay type: functional
Streptococcus pneumoniae [42] = assay: Antimicrobial activity against penicillin-susceptible Streptococcus pneumoniae clinical isolates assessed as resistant isolates by broth microdilution method; assay type: functional
[43] = test system: Staphylococcus haemolyticus; assay: Antimicrobial activity against oxacillin-resistant Staphylococcus haemolyticus clinical isolates assessed as resistant isolates by broth microdilution method; assay type: functional
Streptococcus pneumoniae [44] = assay: Antimicrobial activity against penicillin-intermediate Streptococcus pneumoniae clinical isolates assessed as percent susceptible isolates by broth microdilution method; assay type: functional
Streptococcus pyogenes [45] = assay: Antimicrobial activity against erythromycin-susceptible Streptococcus pyogenes clinical isolates assessed as percent susceptible isolates by broth microdilution method; assay type: functional
[46] = test system: Staphylococcus epidermidis; assay: Antimicrobial activity against oxacillin-resistant Staphylococcus epidermidis clinical isolates by broth microdilution method; assay type: functional
Staphylococcus aureus [47] = assay: Antimicrobial activity against Staphylococcus aureus clinical isolates assessed as percent susceptible isolates by broth microdilution method; assay type: functional
Streptococcus agalactiae [48] = assay: Antimicrobial activity against Streptococcus agalactiae clinical isolates by broth microdilution method; assay type: functional
[49] = Antimicrobial activity against erythromycin-susceptible Streptococcus Group G clinical isolates assessed as percent susceptible isolates by broth microdilution method; assay type: functional, Streptococcus sp. 'group G'
Streptococcus pneumoniae [50] = assay: Antimicrobial activity against penicillin-resistant Streptococcus pneumoniae clinical isolates assessed as percent susceptible isolates by broth microdilution method; assay type: functional
[51] = Antimicrobial activity against Streptococcus Group C clinical isolates by broth microdilution method; assay type: functional; details: Streptococcus sp. 'group C'
[52] = test system: Staphylococcus epidermidis; assay: Antimicrobial activity against oxacillin-resistant Staphylococcus epidermidis clinical isolates assessed as resistant isolates by broth microdilution method; assay type: functional
Streptococcus agalactiae [53] = assay: Antimicrobial activity against erythromycin-susceptible Streptococcus agalactiae clinical isolates assessed as percent susceptible isolates by broth microdilution method; assay type: functional
Streptococcus pneumoniae [54] = assay: Antimicrobial activity against penicillin-intermediate Streptococcus pneumoniae clinical isolates assessed as resistant isolates by broth microdilution method; assay type: functional
Streptococcus pneumoniae [55] = assay: Antimicrobial activity against penicillin-intermediate Streptococcus pneumoniae clinical isolates by broth microdilution method; assay type: functional
[56] = test system: Staphylococcus epidermidis; assay: Antimicrobial activity against Staphylococcus epidermidis clinical isolates by broth microdilution method; assay type: functional
[57] = Antimicrobial activity against erythromycin-susceptible Streptococcus Group C clinical isolates assessed as percent susceptible isolates by broth microdilution method; assay type: functional, Streptococcus sp. 'group C'
Streptococcus pyogenes [58] = assay: Antimicrobial activity against erythromycin-nonsusceptible Streptococcus pyogenes clinical isolates assessed as percent susceptible isolates by broth microdilution method; assay type: functional
[59] = test system: Staphylococcus haemolyticus; assay: Antimicrobial activity against oxacillin-resistant Staphylococcus haemolyticus clinical isolates assessed as percent susceptible isolates by broth microdilution method; assay type: functional
[60] = test system: Staphylococcus epidermidis; assay: Antimicrobial activity against Staphylococcus epidermidis clinical isolates assessed as resistant isolates by broth microdilution method; assay type: functional
Streptococcus pyogenes [61] = assay: Antimicrobial activity against erythromycin-susceptible Streptococcus pyogenes clinical isolates by broth microdilution method; assay type: functional
Streptococcus agalactiae [62] = assay: Antimicrobial activity against erythromycin-susceptible Streptococcus agalactiae clinical isolates by broth microdilution method; assay type: functional
Streptococcus [63] = assay: Antimicrobial activity against erythromycin-susceptible Streptococcus Group F clinical isolates by broth microdilution method; assay type: functional
[64] = test system: Staphylococcus epidermidis; assay: Antimicrobial activity against oxacillin-resistant Staphylococcus epidermidis clinical isolates assessed as percent susceptible isolates by broth microdilution method; assay type: functional
Staphylococcus aureus [65] = assay: Antimicrobial activity against oxacillin-susceptible Staphylococcus aureus clinical isolates assessed as resistant isolates by broth microdilution method; assay type: functional
[66] = Antimicrobial activity against Streptococcus Group G clinical isolates by broth microdilution method; assay type: functional; details: Streptococcus sp. 'group G'

CC[C@H]1OC(=O)[C@H](C)[C@@H](O[C@H]2C[C@@](C)(OC)[C@@H](O)[C@H](C)O2)[C@H](C)[C@@H](O[C@@H]2O[C@H](C)C[C@H](N(C)C)[C@H]2O)[C@](C)(O)C[C@@H](C)C(=O)[C@H](C)[C@@H](O)[C@]1(C)O [ERYTHROMYCIN]
Activity (Staphylococcus aureus [1]): 8.4%
Resistant isolates [2]: 78.4%
Percent of isolates resistant (Streptococcus pneumoniae [3]): 84.5%
Percent of isolates resistant [4]: 45.4%
Activity [5]: 0%
Activity (Streptococcus pyogenes [6]): 13.6%
Activity (Streptococcus agalactiae [7]): 0%
MIC90 (Streptococcus pyogenes [8]): > 2 µg/mL
Activity [9]: 0%
MIC90 [10]: > 8 µg/mL
Activity (Streptococcus agalactiae [11]): 28.7%
Activity (Streptococcus agalactiae [12]): 97.5%
Activity (Streptococcus pyogenes [13]): 86.3%
Activity [14]: 32.2%
MIC90 [15]: > 2 µg/mL
MIC90 [16]: > 8 µg/mL
MIC90 [17]: > 2 µg/mL
MIC90 (Streptococcus [18]): > 2 µg/mL
Activity (Streptococcus pneumoniae [19]): 67.3%
Activity (Streptococcus pyogenes [20]): 99.2%
Resistant isolates (Streptococcus pneumoniae [21]): 32.4%
MIC90 (Streptococcus pneumoniae [22]): > 2 µg/mL
MIC (Streptococcus pneumoniae [23]): > 0.03 µg/mL
Activity [24]: 53.8%
MIC90 [25]: 0.06 µg/mL (≈ 0.0818 µM)
Activity [26]: 51.4%
Activity [27]: 48.6%
Activity (Streptococcus agalactiae [28]): 70.6%
MIC90 (Streptococcus pneumoniae [29]): > 2 µg/mL
MIC90 (Streptococcus [30]): 2 µg/mL (≈ 2.73 µM)
Percent resistant isolates (Staphylococcus aureus [31]): 65.3%
MIC90 [32]: > 8 µg/mL
MIC90 (Staphylococcus aureus [33]): > 8 µg/mL
Activity (Staphylococcus aureus [34]): 60.7%
MIC90 [35]: 0.06 µg/mL (≈ 0.0818 µM)
Activity [36]: 21.6%
Activity (Streptococcus pneumoniae [37]): 88.1%
MIC90 (Staphylococcus aureus [38]): > 8 µg/mL
MIC90 (Streptococcus pyogenes [39]): > 2 µg/mL
Percent resistant isolates (Staphylococcus aureus [40]): 90.5%
MIC90 (Streptococcus agalactiae [41]): > 2 µg/mL
Percent of isolates resistant (Streptococcus pneumoniae [42]): 11.6%
Activity [43]: 88.3%
Activity (Streptococcus pneumoniae [44]): 41.2%
Activity (Streptococcus pyogenes [45]): 100%
MIC [46]: ≥ 0.12 µg/mL
Activity (Staphylococcus aureus [47]): 32.6%
MIC90 (Streptococcus agalactiae [48]): > 2 µg/mL
Activity [49]: 100%
Activity (Streptococcus pneumoniae [50]): 14.9%
MIC90 [51]: 2 µg/mL (≈ 2.73 µM)
Percent of isolates resistant [52]: 75.3%
Activity (Streptococcus agalactiae [53]): 100%
Percent of isolates resistant (Streptococcus pneumoniae [54]): 58.8%
MIC90 (Streptococcus pneumoniae [55]): > 2 µg/mL
MIC90 [56]: > 8 µg/mL
Activity [57]: 100%
Activity (Streptococcus pyogenes [58]): 0%
Activity [59]: 11.7%
Percent of isolates resistant [60]: 67.2%
MIC90 (Streptococcus pyogenes [61]): 0.06 µg/mL (≈ 0.0818 µM)
MIC90 (Streptococcus agalactiae [62]): 0.06 µg/mL (≈ 0.0818 µM)
MIC90 (Streptococcus [63]): 0.06 µg/mL (≈ 0.0818 µM)
Activity [64]: 24.1%
Percent of isolates resistant (Staphylococcus aureus [65]): 35.9%
MIC90 [66]: 2 µg/mL (≈ 2.73 µM)

— ChEMBL document CHEMBL1649268, “Comparative in vitro activity profile of oritavancin against recent gram-positive clinical isolates” (2009)
